From ChEMBL document CHEMBL4190263, “Bacterial Production of a Pederin Analogue by a Free-Living Marine Alphaproteobacterium” (2017)

What was measured:
Assay type in all cases: functional
HT-29 = assay: Antiproliferative activity against human HT-29 cells assessed as growth inhibition after 72 hrs by SRB assay; details: HT-29, 72 h
A549 = assay: Antiproliferative activity against human A549 cells assessed as growth inhibition after 72 hrs by SRB assay; details: A549, 72 h
MDA-MB-231 = assay: Antiproliferative activity against human MDA-MB-231 cells assessed as growth inhibition after 72 hrs by SRB assay; details: MDA-MB-231, 72 h
PSN1 = assay: Antiproliferative activity against human PSN1 cells assessed as growth inhibition after 72 hrs by SRB assay; details: PSN1, 72 h

Measured: GI50

C=C1C[C@](OC)([C@H](O)C(=O)N[C@@H](OC)[C@@H]2C[C@@H](O)C(C)(C)[C@@H](C[C@@H](CO)OC)O2)O[C@H](C)[C@@H]1C
2 to 2.9 nM: HT-29 | A549 | MDA-MB-231 | PSN1
